Source: article PMC11219945, “Assessing genotoxic effects of chemotherapy agents by a robust in vitro assay based on mass spectrometric quantification of γ-H2AX in HepG2 cells” (Frontiers in Pharmacology, 2024)
Where a name gives a salt, the structure may show the parent alone.

Assays:
[1] = test system: γ-H2AX in HepG2 cells; test: γ-H2AX MS assay, dose-effect relationship in HepG2 cells; details: for Genotoxicity in γ-H2AX MS assay: tested concentration 1 mM
Procedure: Human hepatoblastoma cells (HepG2) were cultivated in DMEM medium under standard conditions (37°C in a 5% CO2 atmosphere). The culturing medium was added with 10% FBS, 100 U/mL penicillin and 100 μg/mL streptomycin.
In accordance to our previous study, cells were exposed to the chemotherapeutic agent by adding a proper volume of chemotherapeutic agent stock solution to the fresh medium without serum. Controls were treated with DMSO (0.1%) in medium. Independent biological experiments with three technical replicates were conducted.
The cells were then treated with different chemotherapy agents in serum-free medium. For a dose-effect relationship experiment, cells were exposed to each agent at either of three concentrations with a 10-fold increase for 24 h. For the time-effect relationship experiment of nine tested chemotherapy agents, cells were exposed to selected chemotherapy agents at 0.5, 1, 2, 4, 8, 12, and 24 h, with the concentration of 100 μM. Independent biological experiments with three technical replicates were performed.
(§1) The quantification of γ-H2AX was carried out according to the previous report ([Qu et al., 2021]). In short, the cell clumps were collected after a certain period of cell culture and histones were obtained by acid extraction. After nuclear isolation, histone extraction, trypsin digestion in the solution, and desalting, the peptide sample from the carboxy terminus of H2AX was analyzed. LC–MS/MS analysis was conducted using a QTRAP 5500 (AB Sciex, Framingham, United States) with an ACQUITY UPLC system (Waters Co., Manchester, United Kingdom). Chromatographic separation was carried out with an ACQUITY UPLC BEH C18 column (100 mm × 2.1 mm, 1.7 μm). The column temperature was maintained at 40°C. A 10 μL sample aliquot was injected for analysis. Mobile phases A and B were 0.1% FA in distilled H2O and acetonitrile, respectively. […] The eluent composition was maintained for 2 min, after which the system returned to 1% B and was re-equilibrated for 2 min. The eluates in the first 1 min were switched to waste to prevent contaminating the ion source. The electrospray ionization source was operated in positive mode using nitrogen as the nebulizing gas. All experiments were performed independently in at least triplicate.
To this end, we firstly examined the cytotoxicity of 34 chemotherapy agents, all of which were already well classified in terms of diverse characteristics. These tested chemotherapy agents were serially diluted for exposure to check the effects on cell viability.

[2] = combination of in vitro mouse lymphoma, chromosomal aberration, and micronucleus tests; cited from earlier work
[3] = test system: γ-H2AX in HepG2 cells; test: γ-H2AX time-effect relationship / DNA repair kinetics (k, t50) in HepG2 cells; type: cell-based, Human; parameters: k (speed of γ-H2AX descending): unit not given here; details: 100 μM, 0.5–8 h time-dependent kinetics
Procedure: The cells were then treated with different chemotherapy agents in serum-free medium. […] Independent biological experiments with three technical replicates were performed.
as §1, with “In” for “The quantification of γ-H2AX was carried out according to the previous report ([Qu et al., 2021]). In”
Here, we estimated k and t50 after exposure to nine representative chemotherapy agents based on the 0.5–8 h γ-H2AX time-dependent kinetics (Figure 5) and then obtained these parameters to describe each agent DSB repair capacity using the functions optim and optimize in R language.

O=c1[nH]cc(F)c(=O)[nH]1 [5-fluorouracil]
maximum γ-H2AX value within the selected concentration range ([1]; human, 24 h): 5.2
In vitro assays (genotoxicity) [2]: +

Sc1ncnc2nc[nH]c12 [6-mercaptopurine]
maximum γ-H2AX value within the selected concentration range ([1]; human, 24 h): 5.82
In vitro assays (genotoxicity) [2]: +

CCC1(c2ccc(N)cc2)CCC(=O)NC1=O (centres unmarked) [Aminoglutethimide]
maximum γ-H2AX value within the selected concentration range ([1]; human, 24 h): 2.9
In vitro assays (genotoxicity) [2]: −

CC(C)(C#N)c1cc(Cn2cncn2)cc(C(C)(C)C#N)c1 [Anastrozole]
In vitro assays (genotoxicity) [2]: −

N.N.O=C([O-])C1(C(=O)[O-])CCC1.[Pt+2] [Carboplatin]
maximum γ-H2AX value within the selected concentration range ([1]; HepG2 cells, 24 h): 7.2
γ-H2AX MEC/MS (minimum effective concentration) ([1]; HepG2 cells, 24 h exposure): ↑(100) µM
γ-H2AX MEC/MS (minimum effective concentration) ([1]; HepG2 cells, 24 h exposure, listed as carboplatin): 100 µM
In vitro assays (genotoxicity) [2]: +

CCCCCCNC(=O)n1cc(F)c(=O)[nH]c1=O [Carmofur]
maximum γ-H2AX value within the selected concentration range ([1]; human, 24 h): 6.3
In vitro assays (genotoxicity) [2]: +

O=NN(CCCl)C(=O)NCCCl [Carmustine]
γ-H2AX MEC/MS (minimum effective concentration) ([1]; HepG2 cells, 24 h exposure): ↑(0.01) µM
γ-H2AX MEC/MS (minimum effective concentration) ([1]; HepG2 cells, 24 h exposure, listed as carmustine): 0.01 µM
k (speed of γ-H2AX descending) [3]: 0.169
t50 (time required for γ-H2AX to drop to half of the maximum value) [3]: 2.298 h

O=P1(N(CCCl)CCCl)NCCCO1 (centres unmarked) [Cyclophosphamide]
maximum γ-H2AX value within the selected concentration range ([1]; HepG2 cells, 24 h): 7.4
Genotoxicity in γ-H2AX MS assay ([1]; HepG2 cells, 24 h): genotoxic
γ-H2AX MEC/MS (minimum effective concentration) ([1]; HepG2 cells, 24 h exposure): ↑(1000) µM
In vitro assays (genotoxicity) [2]: +

CN(C)/N=N/c1[nH]cnc1C(N)=O [Dacarbazine]
maximum γ-H2AX value within the selected concentration range ([1]; human, 24 h): 5.8
In vitro assays (genotoxicity) [2]: +

COc1cccc2c1C(=O)c1c(O)c3c(c(O)c1C2=O)C[C@@](O)(C(=O)CO)C[C@@H]3O[C@H]1C[C@H](N)[C@@H](O)[C@H](C)O1 [Epirubicin hydrochloride]
maximum γ-H2AX value within the selected concentration range ([1]; human, 24 h): 18
γ-H2AX MEC/MS (minimum effective concentration) ([1]; human, 24 h): 0.01 µM
In vitro assays (genotoxicity) [2]: +

COc1cc([C@@H]2c3cc4c(cc3[C@@H](O[C@@H]3O[C@@H]5CO[C@@H](C)O[C@H]5[C@H](O)[C@H]3O)[C@H]3COC(=O)[C@H]23)OCO4)cc(OC)c1O [Etoposide]
In vitro assays (genotoxicity) [2]: +

CC[C@@]1(O)C(=O)OCc2c1cc1n(c2=O)Cc2c-1nc1cc(F)c(C)c3c1c2[C@@H](N)CC3 [Exatecan]
maximum γ-H2AX value within the selected concentration range ([1]; human, 24 h): 19.2
k (speed of γ-H2AX descending) [3]: 0.114
t50 (time required for γ-H2AX to drop to half of the maximum value) [3]: 3.925 h
In vitro assays (genotoxicity) [2]: +

C=C1C[C@@H]2[C@H](CC[C@]3(C)C(=O)CC[C@@H]23)[C@@]2(C)C=CC(=O)C=C12 [Exemestane]
maximum γ-H2AX value within the selected concentration range ([1]; human, 24 h): 3.1
In vitro assays (genotoxicity) [2]: −

C[C@]12CCC(=O)C(O)=C1CC[C@@H]1[C@@H]2CC[C@]2(C)C(=O)CC[C@@H]12 [Formestane]
maximum γ-H2AX value within the selected concentration range ([1]; HepG2 cells, 24 h): 3.2
Genotoxicity in γ-H2AX MS assay ([1]; HepG2 cells, 24 h): none of the selected antitumor hormones exhibited genotoxicity
In vitro assays (genotoxicity) [2]: −

NC(=O)NO [Hydroxyurea]
MEC in γ-H2AX MS assay [1]: 1 mM
In vitro assays (genotoxicity) [2]: +

O=P1(NCCCl)OCCCN1CCCl (centres unmarked) [Ifosfamide]
γ-H2AX MEC/MS (minimum effective concentration) ([1]; HepG2 cells, 24 h exposure): ↑(1000) µM

N#Cc1ccc(C(c2ccc(C#N)cc2)n2cncn2)cc1 [Letrozole]
maximum γ-H2AX value within the selected concentration range ([1]; human, 24 h): 3.1
In vitro assays (genotoxicity) [2]: −

O=C1c2c(O)ccc(O)c2C(=O)c2c(NCCNCCO)ccc(NCCNCCO)c21 [Mitoxantrone]
k (speed of γ-H2AX descending) [3]: 0.111
t50 (time required for γ-H2AX to drop to half of the maximum value) [3]: 7.999 h
In vitro assays (genotoxicity) [2]: +

Cc1ncc(CNC(=O)N(CCCl)N=O)c(N)n1 [Nimustine]
γ-H2AX MEC/MS (minimum effective concentration) ([1]; HepG2 cells, 24 h exposure): ↑(0.01) µM
γ-H2AX MEC/MS (minimum effective concentration) ([1]; HepG2 cells, 24 h exposure, listed as nimustine): 0.01 µM
k (speed of γ-H2AX descending) [3]: 0.160
t50 (time required for γ-H2AX to drop to half of the maximum value) [3]: 2.465 h

O=C1[O][Pt]2([NH][C@@H]3CCCC[C@H]3[NH]2)[O]C1=O [Oxaliplatin]
maximum γ-H2AX value within the selected concentration range ([1]; HepG2 cells, 24 h): 7.51
γ-H2AX MEC/MS (minimum effective concentration) ([1]; HepG2 cells, 24 h exposure): ↑(100) µM
γ-H2AX MEC/MS (minimum effective concentration) ([1]; HepG2 cells, 24 h exposure, listed as oxaliplatin): 100 µM
In vitro assays (genotoxicity) [2]: +

CC(=O)O[C@H]1C(=O)[C@@]2(C)[C@H]([C@H](OC(=O)c3ccccc3)[C@]3(O)C[C@H](OC(=O)[C@H](O)[C@@H](NC(=O)c4ccccc4)c4ccccc4)C(C)=C1C3(C)C)[C@]1(OC(C)=O)CO[C@@H]1C[C@@H]2O [Paclitaxel]
Variation of γ-H2AX ([1]; human, 24 h): no variations of γ-H2AX

COc1cccc2c1C(=O)c1c(O)c3c(c(O)c1C2=O)C[C@@](O)(C(=O)CO)C[C@@H]3O[C@H]1C[C@H](N)[C@H](O[C@@H]2CCCCO2)[C@H](C)O1 [Pirarubicin]
maximum γ-H2AX value within the selected concentration range ([1]; HepG2 cells, 24 h): 22
γ-H2AX MEC/MS (minimum effective concentration) ([1]; HepG2 cells, 24 h exposure): ↑(0.01) µM
γ-H2AX MEC/MS (minimum effective concentration) ([1]; HepG2 cells, 24 h exposure, listed as pirarubicin): 0.01 µM
In vitro assays (genotoxicity) [2]: +

CC/C(=C(\c1ccccc1)c1ccc(OCCN(C)C)cc1)c1ccccc1 [Tamoxifen]
maximum γ-H2AX value within the selected concentration range ([1]; human, 24 h): 3.1
In vitro assays (genotoxicity) [2]: −

O=c1[nH]c(=O)n(C2CCCO2)cc1F (centres unmarked) [Tegafur]
value of γ-H2AX ([1]; human, 100 μM): 7.2
maximum γ-H2AX value within the selected concentration range ([1]; human, 24 h): 7.2
k (speed of γ-H2AX descending) [3]: 3.015
t50 (time required for γ-H2AX to drop to half of the maximum value) [3]: 1.442 h
In vitro assays (genotoxicity) [2]: +

COc1cc([C@@H]2c3cc4c(cc3[C@@H](O[C@@H]3O[C@@H]5CO[C@@H](c6cccs6)O[C@H]5[C@H](O)[C@H]3O)[C@H]3COC(=O)[C@H]23)OCO4)cc(OC)c1O [Teniposide]
maximum γ-H2AX value within the selected concentration range ([1]; human, 24 h): 13.2
In vitro assays (genotoxicity) [2]: +

Nc1nc2nc[nH]c2c(=S)[nH]1 [Thioguanine]
maximum γ-H2AX value within the selected concentration range ([1]; human, 24 h): 6.6
In vitro assays (genotoxicity) [2]: +

CC[C@@]1(O)C(=O)OCc2c1cc1n(c2=O)Cc2cc3c(CN(C)C)c(O)ccc3nc2-1 [Topotecan]
maximum γ-H2AX value within the selected concentration range ([1]; human, 24 h): 18.4
k (speed of γ-H2AX descending) [3]: 0.132
t50 (time required for γ-H2AX to drop to half of the maximum value) [3]: 3.545 h
In vitro assays (genotoxicity) [2]: +

CC[C@]1(O)C[C@H]2CN(CCc3c([nH]c4ccccc34)[C@@](C(=O)OC)(c3cc4c(cc3OC)N(C=O)[C@H]3[C@@](O)(C(=O)OC)[C@H](OC(C)=O)[C@]5(CC)C=CCN6CC[C@]43[C@@H]65)C2)C1 [Vincristine]
Variation of γ-H2AX ([1]; human, 24 h): no variations of γ-H2AX
maximum γ-H2AX value within the selected concentration range ([1]; human, 24 h): 3

CCC1=C[C@@H]2CN(C1)Cc1c([nH]c3ccccc13)[C@@](C(=O)OC)(c1cc3c(cc1OC)N(C)[C@H]1[C@@](O)(C(=O)OC)[C@H](OC(C)=O)[C@]4(CC)C=CCN5CC[C@]31[C@@H]54)C2 [Vinorelbine]
Variation of γ-H2AX ([1]; human, 24 h): no variations of γ-H2AX
maximum γ-H2AX value within the selected concentration range ([1]; human, 24 h): 3.3

Deoxyfluridine
value of γ-H2AX ([1]; HepG2 cells, 100 μM of exposure concentration): 8.4
maximum γ-H2AX value within the selected concentration range ([1]; HepG2 cells, 24 h): 8.4
γ-H2AX MEC/MS (minimum effective concentration) ([1]; HepG2 cells, 24 h exposure): ↑(10) µM
γ-H2AX MEC/MS (minimum effective concentration) ([1]; HepG2 cells, 24 h exposure, listed as deoxyfluridine): 10 µM
k (speed of γ-H2AX descending) [3]: 4.157
t50 (time required for γ-H2AX to drop to half of the maximum value) [3]: 1.201 h
In vitro assays (genotoxicity) [2]: +
